One test has as its target human GYS1 (Homo sapiens (Human), UniProt P13807). The test is described as follows: GYS1 coupled enzyme assay (PK/LDH). Type of test: biochemical. The note with it: recombinant hGYS1/GN1 protein; geometric mean of at least 2 assay runs. From the text:
The GYS1 coupled enzyme assay is a kinetic biochemical assay that indirectly quantifies the rate of glycogen synthesis by coupling the conversion of GYS1 substrate UDP-glucose into UDP with downstream enzymatic reactions. UDP is released from UDP-glucose as glucose monomers are linked into the growing glycogen strand by GYS1. The coupled assay then proceeds with pyruvate kinase utilizing UDP and phospho (enol) pyruvate (PEP) to form pyruvate. Lactate dehydrogenase then converts pyruvate and NADH into lactate and NAD+. Oxidation of NADH to NAD+ can be measured continuously with a plate reader by quantifying the decrease in NADH absorbance at 340 nm over time.
Compounds that inhibit the hGYS1 enzyme and, subsequently, the downstream conversion of NADH to NAD+, were tested using assay ready plates (black, clear bottom 384 well plates) in a final DMSO reaction volume of 2.5% DMSO. The Assay Buffer contained 50 mM Tris pH 7.5, 2 mM MgCl2, and 100 mM KCl. Fresh stocks of BSA at a final concentration of 0.02% and TCEP at 1 mM were added before splitting buffer into hGYS1 buffer and substrate buffer. To the hGYS1 buffer, rabbit liver glycogen was added at a final concentration of 0.2% glycogen. Glucose-6-Phosphate was added at 1 mM, recombinant hGYS1/GN1 protein was added at 50 nM to the substrate buffer, phosphoenolpyruvate (PEP) was added at 2 mM, UDP-Glucose was added at 0.8 mM, NADH) was added at 0.6 mM, and Pyruvate Kinase/Lactate Dehydrogenase was added at 20 units/mL. The reaction was initiated by mixing hGYS1 buffer and substrate buffer at a 1:1 ratio. Both buffers were plated using a liquid dispensing device with hGYS1 buffer plated first followed by the substrate buffer. Plates were spun briefly to eliminate air bubbles and are immediately read in continuous mode at an absorbance of 340 nm, for 10 time points in one-minute increments, for a total of 10 minutes. The slope from these 10 time points was normalized to the positive and negative control wells.
Unless otherwise specified, IC50 values are reported as the geometric mean of at least 2 assay runs on separate days. Each run represents the average of a technical replicate, where each compound was assayed twice in the same plate.

Test [1] addresses hGYS1 enzyme, glycogen synthesis in HeLa cells (Homo sapiens (Human), UniProt P13807). Put plainly: GYS1 cell based assay (glycogen synthesis in HeLa cells, Glucose-glo). The note with it: starved HeLa cells, 24 h incubation; geometric mean of at least 2 assay runs; read-out: Cellular IC50. The source says:
The GYS1 cell based assay is a bioluminescent assay that quantifies the glucose resulting from glycogen digestion; the quantified glucose is an indirect measure of GYS1 glycogen synthesis. Newly synthesized glycogen is digested using Glucoamylase; the resulting glucose is quantified by using the Glucose-glo assay kit from Promega. Glucose-glo works by coupling glucose oxidation and NADH production with a bioluminescent system that is activated with NADH. Glucose is oxidized by Glucose dehydrogenase and the reaction reduces NAD+ to NADH; NADH activates Reductase which reduces a pro-luciferin Reductase Substrate to luciferin. Luciferin is detected in a luciferase reaction using Ultra-Glo rLuciferase and ATP, and the luminesce produced is proportional to the glucose in the sample. The luminescence is measured as a single point read in a plate reader.
Compounds that inhibit the hGYS1 enzyme and, subsequently, the glycogen synthesis in cells, were tested using assay ready plates (white, clear bottom 384 well plates) in a final DMSO reaction volume of 1% DMSO. Compounds in the assay ready plates were mixed with media with no additives, except for 20 mM glucose prior to cell addition. HeLa cells were starved in media with no additives, except for 1× Glutamax for 24 h. Starved HeLa cells were plated, in a 1:1 ratio to the media in the assay ready plate and incubated for 24 h at 37° C. and 5% CO2. Cells were washed in 1×PBS buffer and lysed in lysis buffer containing 50% 1×PBS and 25% 0.3 N HCl of the final volume in the well or reaction volume; cells were incubated with lysis buffer for 10 minutes and quenched with the remaining 25% of the reaction volume that consisted of 450 mM Tris pH 8.0. Lysates were mixed in a 1:1 ratio with Glucoamylase in 100 mM Sodium Acetate buffer, pH 5.3; the mixture was incubated for 1 h at 37° C. The digested lysate was mixed in a 1:1 ratio with Glucose-glo detection mixture as per vendor recommendations (Luciferase detection buffer, Reductase, Reductase substrate, Glucose dehydrogenase, and NAD) in read-out plates (solid white 384-well plates) and incubated for 1 h at RT. The plates were read using a plate reader with luminescence capabilities. Each compound concentration Relative Luminescence Unit (RLU) was averaged and normalized to the average RLU of the positive and negative controls to obtain a percentage inhibition. The normalized data vs. concentration was plotted; to determine the half-maximal concentration (IC50), the Levenberg-Marquardt algorithm was used to fit a Hill equation to the dose response data.
Unless otherwise specified, IC50 values are reported as the geometric mean of at least 2 assay runs on separate days. […] Unless otherwise specified, IC50 values are reported as the geometric mean of at least two assay runs on separate days. Each run represents the average of a technical replicate, where each compound was assayed twice in the same plate.

What is called IC50 is the point on the concentration scale where inhibition reaches its midpoint.

hGYS1 enzyme, glycogen synthesis in HeLa cells, sequence (P13807 whole entry): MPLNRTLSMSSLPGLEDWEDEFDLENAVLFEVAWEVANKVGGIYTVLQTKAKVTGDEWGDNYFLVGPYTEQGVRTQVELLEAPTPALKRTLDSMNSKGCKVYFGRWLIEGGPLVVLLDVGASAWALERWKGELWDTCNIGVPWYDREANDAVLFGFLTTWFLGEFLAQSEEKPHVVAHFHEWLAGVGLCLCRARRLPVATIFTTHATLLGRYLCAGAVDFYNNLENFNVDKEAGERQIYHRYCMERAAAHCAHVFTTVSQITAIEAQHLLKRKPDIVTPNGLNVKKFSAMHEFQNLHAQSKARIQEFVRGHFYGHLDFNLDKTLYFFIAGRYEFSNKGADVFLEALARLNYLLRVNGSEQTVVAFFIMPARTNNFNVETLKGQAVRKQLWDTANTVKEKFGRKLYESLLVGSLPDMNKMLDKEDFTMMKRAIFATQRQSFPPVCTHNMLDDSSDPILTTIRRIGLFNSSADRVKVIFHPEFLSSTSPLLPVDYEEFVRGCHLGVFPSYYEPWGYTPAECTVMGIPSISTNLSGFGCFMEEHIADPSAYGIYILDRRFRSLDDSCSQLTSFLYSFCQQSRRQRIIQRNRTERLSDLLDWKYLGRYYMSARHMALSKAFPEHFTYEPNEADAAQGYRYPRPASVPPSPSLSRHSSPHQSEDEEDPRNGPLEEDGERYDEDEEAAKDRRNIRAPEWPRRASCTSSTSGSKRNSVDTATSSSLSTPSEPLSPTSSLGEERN
human GYS1, sequence (P13807 whole entry): as above
human GYS1, sequence (P46976 whole entry partner): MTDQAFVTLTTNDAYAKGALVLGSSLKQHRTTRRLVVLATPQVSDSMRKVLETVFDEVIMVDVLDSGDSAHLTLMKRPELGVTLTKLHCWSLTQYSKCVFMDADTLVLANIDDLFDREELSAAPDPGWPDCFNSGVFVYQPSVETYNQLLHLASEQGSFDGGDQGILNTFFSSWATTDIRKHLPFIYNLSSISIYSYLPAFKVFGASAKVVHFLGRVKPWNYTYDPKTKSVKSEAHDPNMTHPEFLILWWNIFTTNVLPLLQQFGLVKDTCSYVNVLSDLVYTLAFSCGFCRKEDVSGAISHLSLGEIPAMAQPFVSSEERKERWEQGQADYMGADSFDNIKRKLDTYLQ

`CC(C)c1ccc([C@@H](NC(=O)C2CC(NC(=O)OC(C)(C)C)CC2C(=O)O)c2ccccc2)cc1` (single isomer, unassigned) [Compound 11, (1S or 1R,2R or 2S,4R or 4S)-4-((tert-butoxycarbonyl)amino)-2-(((S)-(4-isopropylphenyl)(phenyl)methyl)carbamoyl)cyclopentane-1-carboxylic acid]: the IC50 on human GYS1 was 1.94 µM; in test [1], over 100 µM.

As for `CC(C)c1ccc([C@@H](NC(=O)C2CC(O)CC2C(=O)O)c2ccccc2)cc1` (single isomer, unassigned) [Compound 16, (1S or 1R,2R or 2S,4R or 4S)-4-hydroxy-2-(((S)-(4-isopropylphenyl)(phenyl)methyl)carbamoyl)cyclopentane-1-carboxylic acid], the figures for the IC50 (at human GYS1; in test [1]) were 0.836 µM and over 100 µM, respectively. `CC(C)c1ccc([C@@H](NC(=O)C2CC(O)CC2C(=O)O)c2ccccc2)cc1` (single isomer, unassigned) [Compound 21, (1S or 1R,2R or 2S,4S or 4R)-4-hydroxy-2-(((S)-(4-isopropylphenyl)(phenyl)methyl)carbamoyl)cyclopentane-1-carboxylic acid]: the concentration for half-maximal inhibition (IC50) on human GYS1 is 1.96 µM; in test [1] it was over 100 µM. In the same order, the values of `CC(C)c1ccc([C@@H](NC(=O)C2CC(F)CC2C(=O)O)c2ccccc2)cc1` (single isomer, unassigned) [Compound 25, (1S or 1R,2R or 2S,4R or 4S)-4-fluoro-2-(((S)-(4-isopropylphenyl)(phenyl)methyl)carbamoyl)cyclopentane-1-carboxylic acid] are 1.15 µM and 24.5 µM.

`CC(C)c1ccc([C@@H](NC(=O)C2CCC(C(=O)O)C2)c2ccccc2)cc1` (single isomer, unassigned) [Compound 33, (1S or 1R,3R or 3S)-3-(((S)-(4-isopropylphenyl)(phenyl)methyl)carbamoyl)cyclopentane-1-carboxylic acid]: the IC50 at human GYS1 was found to be 3.13 µM. Turning to `CC1(C)CC2(CC([C@@H](NC(=O)C3CCCC3C(=O)O)c3ccccc3)C2)C1` (single isomer, unassigned) [Compound 35, (1S or 1R,2R or 2S)-2-(((R)-(6,6-dimethylspiro[3.3]heptan-2-yl)(phenyl)methyl)carbamoyl)cyclopentane-1-carboxylic acid], the IC50 at human GYS1 turned out to be 2.39 µM. The same measure, in the same setting: for `CC(C)c1ccc([C@@H](NC(=O)[C@@H]2CCC[C@@H]2C(=O)O)c2cccc(-c3ccnn3C)c2)nc1F` [Compound 1, (1S,2R)-2-(((S)-(6-fluoro-5-isopropylpyridin-2-yl)(3-(1-methyl-1H-pyrazol-5-yl)phenyl)methyl)carbamoyl)cyclopentane-1-carboxylic acid] the value was 1.44 µM. Same read-out and setting: next, `CC(C)c1ccc([C@@H](NC(=O)[C@@H]2CCC[C@@H]2C(=O)O)c2cccc(-c3cnco3)c2)nc1F` [Compound 2, (1S,2R)-2-(((S)-(6-fluoro-5-isopropylpyridin-2-yl)(3-(oxazol-5-yl)phenyl)methyl)carbamoyl)cyclopentane-1-carboxylic acid]: 0.426 µM. The same measure, in the same setting: next, `CC(C)c1ccc([C@@H](NC(=O)[C@@H]2CCC[C@@H]2C(=O)O)c2cccc(-c3ccno3)c2)nc1F` [Compound 3, (1S,2R)-2-(((S)-(6-fluoro-5-isopropylpyridin-2-yl)(3-(isoxazol-5-yl)phenyl)methyl)carbamoyl)cyclopentane-1-carboxylic acid]: 0.63 µM. Regarding `CC(C)c1ccc([C@@H](NC(=O)[C@@H]2CCC[C@@H]2C(=O)O)c2cccc(-c3ccn[nH]3)c2)nc1F` [Compound 4, (1S,2R)-2-(((S)-(3-(1H-pyrazol-5-yl)phenyl)(6-fluoro-5-isopropylpyridin-2-yl)methyl)carbamoyl)cyclopentane-1-carboxylic acid], on human GYS1, the half-maximal inhibitory concentration (IC50) turned out to be 0.178 µM. Still for that read-out and setting: for `CC(C)c1ccc([C@@H](NC(=O)[C@@H]2CCC[C@@H]2C(=O)O)c2ccc3cn[nH]c3c2)nc1F` [Compound 5, (1S,2R)-2-(((S)-(6-fluoro-5-isopropylpyridin-2-yl)(1H-indazol-6-yl)methyl)carbamoyl)cyclopentane-1-carboxylic acid] the value was 0.084 µM; for `O=C(O)[C@H]1CCC[C@H]1C(=O)N[C@@H](c1ccccc1)c1ccc(C2CC2)c(F)n1` [Compound 6, (1S,2R)-2-(((S)-(5-cyclopropyl-6-fluoropyridin-2-yl)(phenyl)methyl)carbamoyl)cyclopentane-1-carboxylic acid], 0.272 µM. With `CC(C)c1ccc([C@@H](NC(=O)[C@@H]2CCC[C@@H]2C(=O)O)c2cccc3c2[nH]c(=O)n3C)cc1F` [Compound 7, (1S,2R)-2-(((R)-(3-fluoro-4-isopropylphenyl)(1-methyl-2-oxo-2,3-dihydro-1H-benzo[d]imidazol-4-yl)methyl)carbamoyl)cyclopentane-1-carboxylic acid], the figures for the 50% inhibitory concentration (IC50) (on human GYS1; in test [1]) were 0.884 µM and over 10 µM, respectively. In the same order, the values of `CC(C)c1ccc([C@@H](NC(=O)[C@@H]2CCC[C@@H]2C(=O)O)c2cccc3[nH]c(=O)oc23)cc1` [Compound 9, (1S,2R)-2-(((R)-(4-isopropylphenyl)(2-oxo-2,3-dihydrobenzo[d]oxazol-7-yl)methyl)carbamoyl)cyclopentane-1-carboxylic acid] are 0.879 µM and over 100 µM. Consider `CC(C)c1ccc([C@@H](NC(=O)[C@@H]2CCC[C@@H]2C(=O)O)c2cccc3oc(=O)[nH]c23)cc1` [Compound 10, (1S,2R)-2-(((R)-(4-isopropylphenyl)(2-oxo-2,3-dihydrobenzo[d]oxazol-4-yl)methyl)carbamoyl)cyclopentane-1-carboxylic acid], for which the IC50 at human GYS1 is 2.93 µM; in test [1], over 100 µM.

Turning to `O=C(O)[C@H]1CCC[C@H]1C(=O)N[C@@H](c1ccccc1)c1ccc(C2CC2)cn1` [Compound 12, (1S,2R)-2-(((S)-(5-cyclopropylpyridin-2-yl)(phenyl)methyl)carbamoyl)cyclopentane-1-carboxylic acid], the concentration for half-maximal inhibition (IC50) on human GYS1 was 1.73 µM; in test [1] it was over 65.8 µM. For `CC(C)c1ccc([C@@H](NC(=O)[C@@H]2CCC[C@@H]2C(=O)O)c2ccccc2NC(=O)C2CNC2)cc1` [Compound 13, (1S,2R)-2-(((R)-(2-(azetidine-3-carboxamido)phenyl)(4-isopropylphenyl)methyl)carbamoyl)cyclopentane-1-carboxylic acid], in that order: 2.36 µM and over 68.6 µM. With `O=C(O)[C@H]1CCC[C@H]1C(=O)N[C@@H](c1ccccc1)c1ccc(C2CC2)cc1` [Compound 38, (1S,2R)-2-(((S)-(4-cyclopropylphenyl)(phenyl)methyl)carbamoyl)cyclopentane-1-carboxylic acid], the IC50 at human GYS1 is 1.13 µM.

Source of the values: patent publication US20260021085A1, “CYCLOALKYL CARBOXYLIC ACID DERIVATIVES AS INHIBITORS OF GLYCOGEN SYNTHASE 1 (GYS1) AND METHODS OF USE THEREOF” (Maze Therapeutics, Inc., priority 2022, published 2026).
